Results as given in publication PMC9030697, “Engineering and Structural Insights of a Novel BBI-like Protease Inhibitor Livisin from the Frog Skin Secretion” (Toxins, 2022).
In brackets after ≈: the same amount, converted by molar mass. Where two headings read alike, the source gives them in different places.

Assays:
human proteasome 20s = target: T1, human proteasome 20s (Homo sapiens, UniProt P28074); assay: Kinetic assay for the inhibition constant (Ki), 20s proteasome; format: biochemical
T1 construct: purchased Biochem, Boston, MA, USA
Procedure: (§1) The inhibitory activities against these proteases were tested at a peptide concentration ranging from 0.1 μM to 100 μM.
(§2) (a) Bovine trypsin; (b) matriptase; (c) chymotrypsin; (d) mesotrypsin; (e) human proteasome 20s. The activity of each protease was assayed in the presence of each peptide ranging from 0.1 μM to 100 μM in PBS (pH 7.4) and the corresponding substrate: Z-Gly-Gly-Arg-NHMec (trypsin); Suc-Ala-Ala-Pro-Phe-NHMec (chymotrypsin); Boc-Gln-Ala-Arg-AMC (matriptase); Mca-Arg-Pro-Val-Glu-Nval-Trp-Arg-Lys(Dnp)-NH2 (mesotrypsin); Suc-Leu-Leu-Val-Tyr-AMC (human proteasome 20s).
(§3) Kinetic assays for the inhibition constant (Ki). […] Inhibitory activities against the proteases of the peptides were tested using previously published papers and manufacturers’ instructions from 0.1 μM to 100 μM in PBS (pH 7.4). Wells of a black microtiter plate were loaded with designed different concentrations of peptide solution. […] For the human proteasome 20s, florescent was read after 15 min pre-incubation. The fluorescent products’ formation rate was measured continuously at 37 °C in the kinetic model using a multi-detection microplate reader (BMG Labtech, Ortenberg, Germany). […] Assays were repeated individually three times, and the Ki was calculated by non-linear regression (Morrison equation) using GraphPad Prism.

[1] = tested on: Candida albicans (NCPF 1467)
Procedure: (§4) The antimicrobial activities of the five peptides were assessed by determining their minimal inhibitory concentrations (MICs) against three standard microorganisms, the Gram-positive bacterium Staphylococcus aureus (NCTC 10788) and the Gram-negative bacterium Escherichia coli (NCTC 10418), and the opportunistic pathogen yeast Candida albicans (NCPF 1467).
(§5) Minimal inhibitory concentration assay. Antimicrobial activities of the peptides were monitored by determining their minimal inhibitory concentrations (MICs) using three standard microorganisms, which were Gram-positive bacterium Staphylococcus aureus (NCTC 10788), Gram-negative bacterium Escherichia coli (NCTC 10418), and opportunistic pathogen yeast Candida albicans (NCPF 1467). The peptides were dissolved in physiological PBS, two-fold diluted to obtain a series of concentrations, and added into wells of 96-well microtiter plates. The respective concentrations of peptides and controls were incubated with microorganism cultures (5 × 10^5 colony-forming units/mL) for 18 h at 37 °C in a humidified atmosphere. Then, the growth of microorganisms was detected by measuring optical density at λ = 550 nm using an absorbance reader (BioTek Instruments, Winooski, VT, USA). MIC was defined as the minimum concentration of peptide at which no growth was detectable.

[2] = tested on: Staphylococcus aureus (NCTC 10788)
Procedure: as §4, §5

[3] = tested on: Escherichia coli (NCTC 10418)
Procedure: as §4, §5

human matriptase-1 = target: T2, human matriptase-1 (Homo sapiens, UniProt Q9Y5Y6); assay: Kinetic assay for the inhibition constant (Ki), matriptase; format: biochemical
T2 construct: purchased R&D systems
T2 sequence (Q9Y5Y6 1-855): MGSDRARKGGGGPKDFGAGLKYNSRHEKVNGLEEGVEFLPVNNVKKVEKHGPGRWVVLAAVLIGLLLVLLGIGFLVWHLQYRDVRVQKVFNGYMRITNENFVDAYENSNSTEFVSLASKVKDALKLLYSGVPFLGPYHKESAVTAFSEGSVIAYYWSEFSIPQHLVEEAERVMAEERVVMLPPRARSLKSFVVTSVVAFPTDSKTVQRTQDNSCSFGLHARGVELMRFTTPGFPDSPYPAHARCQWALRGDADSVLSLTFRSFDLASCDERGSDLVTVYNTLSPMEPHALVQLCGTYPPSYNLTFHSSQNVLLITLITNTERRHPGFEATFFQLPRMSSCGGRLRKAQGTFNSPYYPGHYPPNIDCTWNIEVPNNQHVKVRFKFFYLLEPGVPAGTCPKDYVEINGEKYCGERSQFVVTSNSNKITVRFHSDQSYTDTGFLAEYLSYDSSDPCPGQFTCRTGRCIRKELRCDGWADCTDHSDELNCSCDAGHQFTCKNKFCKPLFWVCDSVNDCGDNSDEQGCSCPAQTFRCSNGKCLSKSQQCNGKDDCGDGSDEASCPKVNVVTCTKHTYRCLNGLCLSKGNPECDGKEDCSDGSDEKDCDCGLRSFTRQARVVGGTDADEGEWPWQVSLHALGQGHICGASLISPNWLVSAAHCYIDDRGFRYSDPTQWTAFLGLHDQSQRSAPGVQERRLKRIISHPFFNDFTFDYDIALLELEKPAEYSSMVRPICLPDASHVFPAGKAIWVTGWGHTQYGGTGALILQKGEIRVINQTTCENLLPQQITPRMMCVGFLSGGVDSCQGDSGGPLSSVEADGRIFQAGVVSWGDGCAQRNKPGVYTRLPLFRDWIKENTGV
Procedure: as §1, §2, §3

chymotrypsin = chymotrypsin (Bos taurus, UniProt P00766); assay: biochemical
Procedure: as §1, §2, §3

mesotrypsin = target: T3, mesotrypsin (Homo sapiens, UniProt P35030); assay: Kinetic assay for the inhibition constant (Ki), mesotrypsin; format: biochemical
T3 construct: purchased R&D systems
T3 sequence (P35030 1-304): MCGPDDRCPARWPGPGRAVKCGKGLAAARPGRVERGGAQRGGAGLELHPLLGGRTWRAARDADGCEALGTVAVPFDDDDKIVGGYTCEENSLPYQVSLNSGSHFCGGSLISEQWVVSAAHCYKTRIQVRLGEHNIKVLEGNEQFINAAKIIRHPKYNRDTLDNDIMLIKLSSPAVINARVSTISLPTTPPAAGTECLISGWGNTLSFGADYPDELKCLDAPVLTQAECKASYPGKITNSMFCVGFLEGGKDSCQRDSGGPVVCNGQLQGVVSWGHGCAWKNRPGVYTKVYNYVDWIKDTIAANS
Procedure: as §1, §2, §3

bovine trypsin = target: T4, bovine trypsin (Bos taurus, UniProt P00760); assay: Kinetic assay for the inhibition constant (Ki), trypsin; format: biochemical
T4 construct: purchased Sigma-Aldrich
T4 sequence (P00760 24-246): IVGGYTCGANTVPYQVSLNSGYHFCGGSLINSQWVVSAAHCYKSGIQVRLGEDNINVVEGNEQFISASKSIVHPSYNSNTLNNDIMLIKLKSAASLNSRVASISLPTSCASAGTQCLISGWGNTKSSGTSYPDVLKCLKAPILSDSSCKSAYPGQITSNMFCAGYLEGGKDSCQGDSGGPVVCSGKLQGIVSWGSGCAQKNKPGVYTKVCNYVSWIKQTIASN
Procedure: as §1, §2, §3

[4] = two-fold dilutions in PBS, 5 × 10^5 CFU/mL, 18 h at 37 °C, OD 550 nm, highest concentration 512 μg/mL

Row | SMILES | Ki (human proteasome 20s; peptide 0.1-100 μM in PBS pH 7.4, substrate Suc-Leu-Leu-Val-Tyr-AMC 20 μM, 15 min pre-incubation, 37 °C, fluorescence, Morrison equation, three independent experiments, each in duplicate, NI = no inhibition, read-out: Ki 20s Proteasome) [µM] | MIC C. albicans (NCPF 1467) ([1]; NCPF 1467, 18 h) [µg/mL] | MIC S. aureus (NCTC 10788) ([2]; NCTC 10788, 18 h) [µg/mL] | MIC E. coli (NCTC 10418) ([3]; NCTC 10418, 18 h) [µg/mL] | Ki (human matriptase-1; human matriptase, peptide 0.1-100 μM in PBS pH 7.4, substrate Boc-Gln-Ala-Arg-AMC 20 μM, 37 °C, continuous fluorescence, Morrison equation, three independent experiments, each in duplicate, NI = no inhibition, read-out: Ki Matriptase) [µM] | Ki (chymotrypsin) [µM] | Ki (mesotrypsin; peptide 0.1-100 μM in PBS pH 7.4, substrate Mca-Arg-Pro-Val-Glu-Nval-Trp-Arg-Lys(Dnp)-NH2 20 μM, 37 °C, continuous fluorescence, Morrison equation, three independent experiments, each in duplicate, NI = no inhibition, read-out: Ki Mesotrypsin) [µM] | Ki (bovine trypsin) [nM] | Ki (human proteasome 20s; read-out: Ki 20s Proteasome, peptide 0.1-100 μM in PBS pH 7.4, substrate Suc-Leu-Leu-Val-Tyr-AMC 20 μM, 15 min pre-incubation, 37 °C, fluorescence, Morrison equation, three independent experiments, each in duplicate, NI = no inhibition) [µM] | MIC C. albicans, given in μM ([1]; same MIC as 256 μg/mL, printed in molar unit, 18 h at 37 °C, OD 550 nm) [µM] | MIC C. albicans (NCPF 1467) [1, 4] [µg/mL] | MIC S. aureus (NCTC 10788) [2, 4] [µg/mL] | MIC E. coli (NCTC 10418) [3, 4] [µg/mL] | Ki (human matriptase-1) [µM] | Ki (mesotrypsin) [µM] | Ki (bovine trypsin; bovine trypsin, peptide 0.1-100 μM in PBS pH 7.4, substrate Z-Gly-Gly-Arg-NHMec 45 μM, 37 °C, continuous fluorescence, Morrison equation, three independent experiments, each in duplicate, NI = no inhibition, read-out: Ki Trypsin) [nM]
1 | CC(C)C[C@H](NC(=O)[C@@H]1CSSC[C@H](NC(=O)CNC(=O)[C@H](CCCNC(=N)N)NC(=O)[C@H](CC(C)C)NC(=O)[C@H](Cc2ccccc2)NC(=O)CN)C(=O)N[C@@H](Cc2c[nH]c3ccccc23)C(=O)N[C@@H]([C@@H](C)O)C(=O)N[C@@H](CCCNC(=N)N)C(=O)N[C@@H](CO)C(=O)N[C@@H](Cc2ccccc2)C(=O)N2CCC[C@H]2C(=O)N2CCC[C@H]2C(=O)N[C@@H](CCCCN)C(=O)N2CCC[C@H]2C(=O)N1)C(=O)O [livisin-Arg] | > 100 | >512 | >512 | >512 | 46.9 | 74.7 | 32.1 | 1020 |  |  |  |  |  |  |  | 
2 | CC(C)C[C@H](NC(=O)[C@@H]1CSSC[C@H](NC(=O)CNC(=O)[C@H](CCCNC(=N)N)NC(=O)[C@H](CC(C)C)NC(=O)[C@H](Cc2ccccc2)NC(=O)CN)C(=O)N[C@@H](Cc2c[nH]c3ccccc23)C(=O)N[C@@H]([C@@H](C)O)C(=O)N[C@@H](CCCCN)C(=O)N[C@@H](CO)C(=O)N[C@@H](Cc2ccccc2)C(=O)N2CCC[C@H]2C(=O)N2CCC[C@H]2C(=O)N[C@@H](CCCCN)C(=O)N2CCC[C@H]2C(=O)N1)C(N)=O [livisin-NH2] |  |  |  |  |  | 144 |  |  | > 100 | 132 (≈ 255 µg/mL) | 256 (≈ 132 µM) | >512 | >512 | 2.36 | 18.6 | 424
